# Experimental data as given in patent publication US20180057505A1, “BICYCLIC HETEROARYL COMPOUNDS USEFUL AS INHIBITORS OF THE PAR-2 SIGNALING PATHWAY” (VERTEX PHARMACEUTICALS INCORPORATED, priority 2015, published 2018).
# Tests used:
# Format in all cases: cell-based
# [1] = tested on: Thrombin-stimulated Ca2+ response in HT-29 cells; test: Ca FLIPR TETRA assay, ANTAGONIST mode, activator 1 U/mL Thrombin; conditions: HT-29 cells, activator 1 U/mL Thrombin
# Summary of the method: (§1)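 Compounds are added to calcium 5-loaded HT-29 cells, read once for intrinsic Ca2+ activation, then incubated 30 min at room temperature. The same wells are then stimulated with a fixed final activator level and the Ca2+ response recorded on FLIPR Tetra.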
# PAR2 (HT-29 cells) [2] = target: T1, PAR2 (HT-29 cells) (Homo sapiens, UniProt P55085); test: Ca FLIPR TETRA assay, ANTAGONIST mode, activator 3.1 U/mL trypsin; conditions: HT-29 cells, activator 3.1 U/mL trypsin
# T1 construct: host or cells: HT-29
# T1 sequence (P55085 26-397): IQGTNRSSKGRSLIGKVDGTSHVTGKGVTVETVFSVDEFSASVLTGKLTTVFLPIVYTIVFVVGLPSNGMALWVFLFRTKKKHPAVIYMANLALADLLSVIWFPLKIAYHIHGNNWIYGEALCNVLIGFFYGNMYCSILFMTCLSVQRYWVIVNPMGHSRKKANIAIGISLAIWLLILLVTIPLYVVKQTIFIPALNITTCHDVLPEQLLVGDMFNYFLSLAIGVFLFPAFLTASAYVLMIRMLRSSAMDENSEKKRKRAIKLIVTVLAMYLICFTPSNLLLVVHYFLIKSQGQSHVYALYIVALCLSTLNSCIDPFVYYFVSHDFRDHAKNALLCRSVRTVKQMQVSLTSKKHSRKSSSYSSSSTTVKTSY
# Summary of the method: as §1
# PAR2 (HT-29 cells) [3] = target: T1, PAR2 (HT-29 cells); test: Ca FLIPR TETRA assay, ANTAGONIST mode, activator 8 μM SLIGKV; conditions: HT-29 cells, activator 8 μM SLIGKV
# Summary of the method: as §1
# [4] = tested on: UTP-stimulated Ca2+ response in HT-29 cells; test: Ca FLIPR TETRA assay, ANTAGONIST mode, activator 0.6 μM UTP; conditions: HT-29 cells, activator 0.6 μM UTP
# Summary of the method: as §1
# [5] = maximal antagonist concentration per Method (A: 0.1, 1 or 2 μM; B: 50 μM)
# [6] = Method A: maximal concentration of antagonist 0.1, 1 or 2 μM
IC50 ([1]; Homo sapiens) [nM],IC50 (PAR2 (HT-29 cells) [2]; [5]) [nM],IC50 (PAR2 (HT-29 cells) [3]; [5]) [nM],IC50 ([4]; Homo sapiens) [nM],IC50 (PAR2 (HT-29 cells) [2]; [6]) [nM],IC50 (PAR2 (HT-29 cells) [3]; [6]) [nM],IC50 [1] [nM],IC50 [4] [nM],SMILES
> 2000,,,> 2000,10,8.2,,,CN1CCN(C(=O)c2cc3nc(C4CCC(C)(C)CC4)cc(C(C)(C)C)c3o2)C(C)(C)C1=O [Example I-317]
> 2000,,,> 2000,4.6,2.8,,,Cn1cnnc1N1CCN(C(=O)c2cc3nc(-c4ccc(Cl)c(F)c4)cc(C(C)(C)C)c3o2)C(C)(C)C1 [Example I-318]
> 2000,,,> 2000,0.2,0.2,,,CC(C)[C@@H](CC(=O)N1CCN(C(=O)c2cc3nc(C4CCC(C)(C)CC4)cc(C(C)(C)C)c3o2)C(C)(C)C1)C(=O)O [Example I-319]
> 2000,,,> 2000,0.2,0.1,,,CC(C)[C@@H](CC(=O)N1CCN(C(=O)c2cc3nc(-c4ccc(Cl)cc4)cc(C(C)(C)C)c3o2)C(C)(C)C1)C(=O)O [Example I-320]
> 2000,,,> 2000,0.1,0.1,,,CC(C)[C@@H](CC(=O)N1CCN(C(=O)c2cc3nc(-c4ccc(Cl)c(F)c4)cc(C(C)(C)C)c3o2)C(C)(C)C1)C(=O)O [Example I-321]
> 2000,,,> 2000,240,92,,,CC(C)(C)c1cc(-c2ccc(Cl)cc2)nc2cc(C(=O)N3CCC(=O)NCC3(C)C)oc12 [Example I-322]
> 2000,,,> 2000,18,12,,,CC(C)(C)c1cc(-c2ccc(Cl)cc2)nc2cc(C(=O)N3CCNC(=O)CC3(C)C)oc12 [Example I-323]
> 2000,,,> 2000,0.4,0.2,,,CC(C)(C)c1cc(-c2ccc(Cl)c(F)c2)nc2cc(C(=O)N3CCN(C(=O)CC4(C(=O)O)CCCC4)CC3(C)C)oc12 [Example I-324]
> 2000,,,> 2000,20,20,,,CC(C)(C)c1cc(-c2ccc(Cl)c(F)c2)nc2cc(C(=O)N3CCN(c4cccnc4)C(=O)C3(C)C)oc12 [Example I-325]
> 2000,,,> 2000,38,23,,,CC(C)(C)c1cc(-c2ccc(Cl)cc2)nc2cc(C(=O)N3CCN(c4cccnc4)C(=O)C3(C)C)oc12 [Example I-326]
> 2000,,,> 2000,12,10,,,CC(C)(C)c1cc(-c2ccc(Cl)c(F)c2)nc2cc(C(=O)N3CCN(c4ccncc4)C(=O)C3(C)C)oc12 [Example I-327]

# Second part, the compound before the results:
SMILES,IC50 ([1]; Homo sapiens) [nM],IC50 (PAR2 (HT-29 cells) [2]; [5]) [nM],IC50 (PAR2 (HT-29 cells) [3]; [5]) [nM],IC50 ([4]; Homo sapiens) [nM],IC50 (PAR2 (HT-29 cells) [2]; [6]) [nM],IC50 (PAR2 (HT-29 cells) [3]; [6]) [nM],IC50 [1] [nM],IC50 [4] [nM]
CC(C)(C)c1cc(C2CC3(CCC3)C2)nc2cc(C(=O)N3CCN(C(=O)[C@H]4C[C@@](C)(O)C4)CC3(C)C)oc12 [Example I-296],> 2000,0.7,0.7,> 2000,,,,
CC(C)(C)c1cc(C2CC3(CCC3)C2)nc2cc(C(=O)N3CCN(C(=O)[C@H]4CC[C@@](C)(C(=O)O)CC4)CC3(C)C)oc12 [Example I-297],1400,0.2,0.2,1200,,,,
CC(C)(C)c1cc(C2CC3(CCC3)C2)nc2cc(C(=O)N3CCN(C(=O)[C@H]4CC[C@](C)(C(=O)O)CC4)CC3(C)C)oc12 [Example I-298],510,,,510,18,14,,
CC(C)(C)c1cc(-c2ccc(Cl)c(F)c2)nc2cc(C(=O)N3CCC(CC(=O)O)CC3(C)C)oc12 (stereo not shown) [Example I-299],> 2000,,,1700,0.2,0.2,,
CC1(C)CN(C(=O)[C@H]2C[C@@](C)(O)C2)CCN1C(=O)c1cc2nc(-c3ccc(Cl)c(F)c3)cc(C3(C#N)CC(F)(F)C3)c2o1 [Example I-300],> 2000,,,> 2000,1.6,1.6,,
CCC(CC)c1cc(-c2ccc(F)cc2)nc2cc(C(=O)N3CCN(c4cn[nH]c4)C(=O)C3(C)C)oc12 [Example I-301],> 2000,,,> 2000,4,3,,
CCC(CC)c1cc(-c2ccc(F)cc2)nc2cc(C(=O)N3CCN(C#N)C(=O)C3(C)C)oc12 [Example I-302],> 2000,,,> 2000,19.5,14,,
CC(C)(C)c1cc(C2CCC(Cl)(Cl)CC2)nc2cc(C(=O)N3CCN(C(=O)[C@H]4CC[C@@](C)(C(=O)O)CC4)CC3(C)C)oc12 [Example I-303],1300,,,1800,0.6,0.4,,
Cc1n[nH]c(C(=O)N2CCN(C(=O)c3cc4nc(C5CCC(Cl)(Cl)CC5)cc(C(C)(C)C)c4o3)C(C)(C)C2)n1 [Example I-304],> 2000,,,> 2000,2.8,2,,
CC(C)(C)c1cc(C2CCC(Cl)(Cl)CC2)nc2cc(C(=O)N3CCN(C(=O)[C@H]4C[C@@](C)(O)C4)CC3(C)C)oc12 [Example I-305],> 2000,,,> 2000,3,1.5,,
CC1(C)CCC(c2cc(C(C)(C)C)c3oc(C(=O)N4CCN(C(=O)[C@H]5CC[C@](C)(C(=O)O)CC5)CC4(C)C)cc3n2)CC1 [Example I-306],1400,,,1800,17,4.7,,
[2H]C([2H])([2H])N1CCN(C(=O)c2cc3nc(C4CCC(F)(F)CC4)cc(C(C)(C)C)c3o2)C(C)(C)C1=O [Example I-307],> 2000,,,> 2000,210,124,,
CC(C)(C)c1cc(-c2ccc(F)cc2)nc2cc(C(=O)N3CCN(C(C)(C)C)C(=O)C3(C)C)oc12 [Example I-308],> 2000,,,> 2000,37,14,,
Cc1cc(N2CCN(C(=O)c3cc4nc(C5CCC(C)(C)CC5)cc(C(C)(C)C)c4o3)C(C)(C)C2=O)n[nH]1 [Example I-309],> 2000,,,> 2000,40,32,,
CC(C)(C)c1cc(C2CCC(F)(F)CC2)nc2cc(C(=O)N3CCN(c4cn[nH]c4)C(=O)C3(C)C)oc12 [Example I-310],> 2000,,,> 2000,110,61,,
CC(C)(C)c1cc(C2CCC(F)(F)CC2)nc2cc(C(=O)N3CCN(C(=O)c4nnc[nH]4)CC3(C)C)oc12 [Example I-311],,,,,83,81,> 2000,> 2000
CN1CCN(C(=O)c2cc3nc(C4CCC(F)(F)CC4)cc(C(C)(C)C)c3o2)C(C)(C)C1=O [Example I-312],> 2000,,,> 2000,260,170,,
Cc1c[nH]nc1N1CCN(C(=O)c2cc3nc(C4CCC(C)(C)CC4)cc(C(C)(C)C)c3o2)C(C)(C)C1=O [Example I-313],> 2000,,,> 2000,310,75,,
CC(C)(C)c1cc(-c2ccc(F)cc2)nc2cc(C(=O)N3CCN(C(=O)[C@H]4C[C@@](C)(O)C4)C(C)(C)C3)oc12 [Example I-314],> 2000,,,> 2000,730,190,,
CC1(C)CCC(c2cc(C(C)(C)C)c3oc(C(=O)N4CCN(c5cn[nH]c5)C(=O)C4(C)C)cc3n2)CC1 [Example I-315],> 2000,,,> 2000,12,5.7,,
